Reference: the NIST ThermoML archive (doi:10.1016/j.jct.2009.01.006)

Columns and labels:
[1] = φn = volume fraction of the nth substance listed; conditions: 303.15 K, 101 kPa, Liquid; for speed of sound: Linear variable-path acoustic interferometer
[2] = xn = mol fraction of the nth substance listed; conditions: 303.15 K, 101 kPa, Liquid, Direct dilatometry
[3] = refractive index (Na D-line) (dimensionless); conditions: 298.15 K; 101.33 kPa; Liquid; Standard Abbe refractometry
[4] = 303.15 K; for speed of sound: Linear variable-path acoustic interferometer

CCC(=O)CC [pentan-3-one] + CN1CCCC1=O
Conditions	excess molar volume [m3/mol]	mass density [kg/m3]	speed of sound [m/s]
[1], φ2 = 0	–	804.57	1198
[1], φ2 = 0.1401	–	837.52	1230
[1], φ2 = 0.2265	–	857.08	1252
[1], φ2 = 0.3711	–	889.22	1297
[1], φ2 = 0.423	–	900.7	1316
[1], φ2 = 0.5121	–	920.45	1347
[1], φ2 = 0.5666	–	932.49	1365
[1], φ2 = 0.6937	–	960.46	1415
[1], φ2 = 0.79	–	981.3	1452
[1], φ2 = 0.904	–	1004.83	1502
[2], x2 = 0.0634	-1.55e-07	–	–
[2], x2 = 0.1526	-2.89e-07	–	–
[2], x2 = 0.2446	-3.57e-07	–	–
[2], x2 = 0.3948	-3.98e-07	–	–
[2], x2 = 0.4476	-4.12e-07	–	–
[2], x2 = 0.5371	-4.2e-07	–	–
[2], x2 = 0.591	-4.22e-07	–	–
[2], x2 = 0.7146	-4.13e-07	–	–
[2], x2 = 0.7962	-3.45e-07	–	–
[2], x2 = 0.9124	-2.31e-07	–	–
[2], x2 = 0.9626	-1.06e-07	–	–

CCC(C)=O [butanone]
Conditions	refractive index
[3]	1.377

[4], Liquid
Conditions	mass density [kg/m3]	speed of sound [m/s]
101 kPa	794.51	1167
101.33 kPa	794.5	1168

O=C1CCCCC1 [cyclohexanone] + CN1CCCC1=O
Conditions	excess molar volume [m3/mol]	mass density [kg/m3]	speed of sound [m/s]
[1], φ2 = 0	–	937.58	1386
[1], φ2 = 0.1156	–	947.92	1392
[1], φ2 = 0.2076	–	954.74	1402
[1], φ2 = 0.3053	–	962.9	1415
[1], φ2 = 0.4073	–	971.45	1426
[1], φ2 = 0.4984	–	979.17	1438
[1], φ2 = 0.5729	–	985.58	1454
[1], φ2 = 0.7078	–	997.22	1480
[1], φ2 = 0.7856	–	1004.04	1496
[1], φ2 = 0.9104	–	1015.17	1522
[2], x2 = 0.0657	2.7e-08	–	–
[2], x2 = 0.1238	4.6e-08	–	–
[2], x2 = 0.2207	7.1e-08	–	–
[2], x2 = 0.3217	9e-08	–	–
[2], x2 = 0.4262	1.13e-07	–	–
[2], x2 = 0.5178	1.21e-07	–	–
[2], x2 = 0.5918	1.18e-07	–	–
[2], x2 = 0.7236	1.09e-07	–	–
[2], x2 = 0.7984	9.4e-08	–	–
[2], x2 = 0.9166	5.2e-08	–	–
[2], x2 = 0.9604	3.2e-08	–	–

CC(=O)CC(C)C [4-methylpentan-2-one] + CN1CCCC1=O
Conditions	excess molar volume [m3/mol]	mass density [kg/m3]	speed of sound [m/s]
[1], φ2 = 0	–	791.24	1168
[1], φ2 = 0.0946	–	814.41	1198
[1], φ2 = 0.1879	–	836.88	1232
[1], φ2 = 0.2615	–	854.5	1259
[1], φ2 = 0.3961	–	886.44	1310
[1], φ2 = 0.4444	–	897.82	1332
[1], φ2 = 0.6087	–	936.2	1385
[1], φ2 = 0.7236	–	962.58	1422
[1], φ2 = 0.8232	–	985.02	1456
[1], φ2 = 0.8989	–	1001.74	1491
[2], x2 = 0.0682	-1.09e-07	–	–
[2], x2 = 0.1202	-1.82e-07	–	–
[2], x2 = 0.2327	-2.88e-07	–	–
[2], x2 = 0.3164	-3.49e-07	–	–
[2], x2 = 0.3727	-3.78e-07	–	–
[2], x2 = 0.4616	-4.11e-07	–	–
[2], x2 = 0.5111	-4.22e-07	–	–
[2], x2 = 0.5711	-4.24e-07	–	–
[2], x2 = 0.6703	-4.15e-07	–	–
[2], x2 = 0.7739	-3.58e-07	–	–
[2], x2 = 0.8589	-2.73e-07	–	–
[2], x2 = 0.9208	-1.79e-07	–	–
[2], x2 = 0.9675	-9.3e-08	–	–

O=C1CCCCC1 [cyclohexanone]
Conditions	refractive index
[3]	1.4501

[4], Liquid
Conditions	mass density [kg/m3]	speed of sound [m/s]
101 kPa	937.58	1386
101.33 kPa	937.55	1385

CN1CCCC1=O [N-methylpyrrolidone] + CCC(C)=O
Conditions	speed of sound [m/s]
[1], φ1 = 1	1552

CCCC(C)=O [pentan-2-one] + CN1CCCC1=O
Conditions	excess molar volume [m3/mol]	mass density [kg/m3]	speed of sound [m/s]
[1], φ2 = 0	–	796.54	1202
[1], φ2 = 0.1165	–	824.33	1231
[1], φ2 = 0.193	–	842.58	1254
[1], φ2 = 0.3417	–	877.77	1308
[1], φ2 = 0.4382	–	900.32	1345
[1], φ2 = 0.493	–	913.03	1367
[1], φ2 = 0.6094	–	939.74	1403
[1], φ2 = 0.7189	–	964.15	1429
[1], φ2 = 0.8475	–	991.98	1467
[1], φ2 = 0.9297	–	1009.18	1498
[2], x2 = 0.0776	-1.11e-07	–	–
[2], x2 = 0.1284	-1.74e-07	–	–
[2], x2 = 0.2108	-2.81e-07	–	–
[2], x2 = 0.2852	-3.59e-07	–	–
[2], x2 = 0.3669	-4.39e-07	–	–
[2], x2 = 0.4655	-4.98e-07	–	–
[2], x2 = 0.5205	-5.21e-07	–	–
[2], x2 = 0.5851	-5.28e-07	–	–
[2], x2 = 0.6353	-5.29e-07	–	–
[2], x2 = 0.7406	-4.68e-07	–	–
[2], x2 = 0.8612	-3.15e-07	–	–
[2], x2 = 0.9366	-1.67e-07	–	–
[2], x2 = 0.9769	-7.6e-08	–	–

CCC(=O)CC [pentan-3-one]
Conditions	refractive index
[3]	1.3902

[4], Liquid
Conditions	mass density [kg/m3]	speed of sound [m/s]
101 kPa	804.57	1198
101.33 kPa	804.62	1201

CN1CCCC1=O [N-methylpyrrolidone] + CC(=O)CC(C)C
[1], φ1 = 1
Conditions	mass density [kg/m3]	speed of sound [m/s]
–	1023.4	1552

CCC(C)=O [butanone] + CN1CCCC1=O
Conditions	excess molar volume [m3/mol]	speed of sound [m/s]
[1], φ2 = 0	–	1167
[1], φ2 = 0.1517	–	1214
[1], φ2 = 0.2207	–	1245
[1], φ2 = 0.2988	–	1282
[1], φ2 = 0.426	–	1345
[1], φ2 = 0.5205	–	1391
[1], φ2 = 0.5952	–	1421
[1], φ2 = 0.7078	–	1456
[1], φ2 = 0.8167	–	1483
[1], φ2 = 0.9184	–	1519
[2], x2 = 0.0705	-7.1e-08	–
[2], x2 = 0.1436	-1.42e-07	–
[2], x2 = 0.2097	-1.89e-07	–
[2], x2 = 0.2854	-2.44e-07	–
[2], x2 = 0.4102	-2.93e-07	–
[2], x2 = 0.5043	-3.02e-07	–
[2], x2 = 0.5795	-2.96e-07	–
[2], x2 = 0.6942	-2.56e-07	–
[2], x2 = 0.8068	-1.89e-07	–
[2], x2 = 0.9134	-9.8e-08	–
[2], x2 = 0.9545	-5.1e-08	–

CN1CCCC1=O [N-methylpyrrolidone] + CCCC(C)=O
[1], φ1 = 1
Conditions	mass density [kg/m3]	speed of sound [m/s]
–	1023.4	1552

CC(=O)CC(C)C [4-methylpentan-2-one]
Conditions	refractive index
[3]	1.3935

[4], Liquid
Conditions	mass density [kg/m3]	speed of sound [m/s]
101 kPa	791.24	1168
101.33 kPa	791.25	1172

CCCC(C)=O [pentan-2-one]
Conditions	refractive index
[3]	1.3883

[4], Liquid
Conditions	mass density [kg/m3]	speed of sound [m/s]
101 kPa	796.54	1202
101.33 kPa	796.58	1197

CN1CCCC1=O [N-methylpyrrolidone] + O=C1CCCCC1
[1], φ1 = 1
Conditions	mass density [kg/m3]	speed of sound [m/s]
–	1023.4	1552

CN1CCCC1=O [N-methylpyrrolidone] + CCC(=O)CC
[1], φ1 = 1
Conditions	mass density [kg/m3]	speed of sound [m/s]
–	1023.4	1552

CN1CCCC1=O [N-methylpyrrolidone]
Conditions	refractive index
[3]	1.4674

[4]
Conditions	mass density, 101 kPa [kg/m3]	mass density, 101.33 kPa [kg/m3]	speed of sound, 101.33 kPa [m/s]
Crystal	–	1023.4	–
Liquid	1023.4	–	1552
